Values joined by “and” are separate entries in the source; they are usually repeats but may differ in a detail not shown here. Identical values can stand only once. Like-named read-outs stand apart in the source and are kept apart here. Marks after values point to notes of the source that are not given here.
Columns and labels:
[1] = Pharmacokinetics of regorafenib in plasma of freely moving rats with or without RT (HPLC-UV); type: in vivo, Sprague-Dawley rats; conditions: for MRT / Tmax / half-life: plasma, po, 16 mg/kg; for half-life: read-out: t½
Description: The Institutional Animal Experimentation Committee of National Yang-Ming University, Taipei, Taiwan, and the Institutional Animal Care and Use Committee (IACUC, approval number 1070523) reviewed and approved the protocol. The Laboratory Animal Center at National Yang-Ming University (Taipei, Taiwan) provided adult male Sprague-Dawley rats (300 ± 20 g body weight). A pathogen-free environment with a 12 h light–dark cycle, with access to water ad libitum and food (laboratory rodent diet 5P14, PMI Feeds, Richmond, IN, USA), was provided for the animals.
A freely moving rat model was designed for the current study. The rats were anaesthetized and immobilized on a board, while undergoing computed tomography for localization of the whole liver or a central area 1.5 cm × 1.5 cm in size for the SBRT technique. For the whole liver field, the cranial margin was set 5 mm from the top of the diaphragm, and the caudal margin was set 5 mm lower than the liver margin. The whole liver was targeted for irradiation. The experimental animals were randomized to groups receiving sham RT, one or three fractions of RT2 Gy and RT9 Gy with current or sequential regorafenib. Data were collected from six rats in each group.
According to the formula used to translate doses from animal to human, human equivalent dose (HED, mg/kg) = animal dose (mg/kg) × animal km/human km, we calculated the daily dose of regorafenib for rats to be 16 (mg/kg/day). The rats were randomly divided into ten groups with six rats in each group. The concurrent groups treated with regorafenib 1 h after RT, in the same day, to mimic regorafenib concurrent with RT in the daily practice. The sequential groups treated with regorafenib following RT (not in the same day), to mimic RT followed by regorafenib in the daily practice. The one fraction study group included (A) a sham group, regorafenib with RT0 Gy (regorafenib × 1 d); concurrent groups treated with regorafenib 1 h after (B) RT2 Gy with 1 fraction (RT2 Gy × 1 f’x) and (D) RT9 Gy with 1 fraction (RT9 Gy × 1 f’x); and sequential groups treated with regorafenib 24 h after (C) RT2 Gy × 1 f’x and (E) RT9 Gy × 1 f’x. Continued treatment mimicking clinical practice was applied to (A) a sham group, regorafenib (p.o. (per os), q.d. × 3 d) with RT0 Gy (regorafenib × 3 d); concurrent groups treated with regorafenib (p.o., q.d. × 3 d) 1 h after (B) RT2 Gy with 3 fractions (RT2 Gy × 3 f’x) and (D) RT9 Gy with 3 fractions (RT9Gy × 3 f’x); and sequential groups treated with regorafenib 24 h (p.o., q.d. × 3 d) after (C) RT2 Gy × 3 f’x and (E) RT9 Gy × 3 f’x. (Figure 1A,B).
A 150 µL blood sample was withdrawn from the jugular vein with a fraction collector at 0.25, 0.5, 0.75, 1, 1.5, 2, 2.5, 3, 3.5 and 4 h, following drug administration. The samples were centrifuged for 10 min, at 4200× g. Then, 50 µL of the resulting plasma was vortexed with 1 mL of ethyl acetate and centrifuged at 5900× g. The upper layer was transferred to a new tube and evaporated to dryness.
The HPLC system included chromatographic pumps (LC-20AT; Shimadzu Co., Kyoto, Japan), an autosampler (SIL-20AC; Shimadzu Co., Kyoto, Japan) and a UV–Vis detector (SPDM20A; Shimadzu Co., Kyoto, Japan). A Waters Acquity C^18 column (50 × 2.1 mm, particle size 1.7 μm, Eclipse XDB, Agilent, Palo Alto, CA, USA) was used for sample analysis. The mobile phase consisted of potassium dihydrogen phosphate (10 mM, pH = 3) and acetonitrile (55:45, v/v). The flow rate was set to 0.2 mL/min, and the injection volume was 5 μL. The temperature in the autosampler was set to 40 °C. The UV–Vis detector scanned from 190 to 300 nm, and the chromatographic profiles were monitored at 265 nm for regorafenib and diethylstilbestrol (internal standard (IS)).
The process for sample extraction was as follows: 50 μL of rat plasma was mixed with internal standard (10 μL, IS, diethylstilbestrol) solution and methanol (140 μL) for protein precipitation. […]

[2] = system: Huh-7 cells; assay: Morphological observation (Liu's stain); type: cell-based, human; conditions: regorafenib 0-20 μM with RT
Description: Huh-7 cells were treated with regorafenib at concentrations of 0, 5, 10 and 20 μmol/L (μM) in the concurrent and sequential groups with different RT doses. Then, the cells were centrifuged by using Cytospin (Shandon Inc., Pittsburgh, PA). Liu’s A solution and Liu’s B solution were used on glass slides for 45 and 90 s, respectively. Then, a light microscope (Olympus, Tokyo, Japan) was used to observe the Huh-7 cells.

[3] = male, Sprague-Dawley, rat, rat plasma, 16 mg/kg p.o. × 1 d, no RT
[4] = male, Sprague-Dawley, rat, rat plasma, 16 mg/kg p.o. × 3 d, no RT
[5] = male, Sprague-Dawley, rat, rat plasma, RT2 Gy × 1 f'x followed by regorafenib 16 mg/kg p.o. × 1 d (sequential)
[6] = male, Sprague-Dawley, rat, rat plasma, RT2 Gy × 1 f'x with regorafenib 16 mg/kg p.o. × 1 d (concurrent)
[7] = male, Sprague-Dawley, rat, rat plasma, RT2 Gy × 3 f'x followed by regorafenib 16 mg/kg p.o. × 3 d (sequential)
[8] = male, Sprague-Dawley, rat, rat plasma, RT2 Gy × 3 f'x with regorafenib 16 mg/kg p.o. × 3 d (concurrent)
[9] = male, Sprague-Dawley, rat, rat plasma, RT9 Gy × 1 f'x followed by regorafenib 16 mg/kg p.o. × 1 d (sequential)
[10] = male, Sprague-Dawley, rat, rat plasma, RT9 Gy × 1 f'x with regorafenib 16 mg/kg p.o. × 1 d (concurrent)
[11] = male, Sprague-Dawley, rat, rat plasma, RT9 Gy × 3 f'x followed by regorafenib 16 mg/kg p.o. × 3 d (sequential)
[12] = male, Sprague-Dawley, rat, rat plasma, RT9 Gy × 3 f'x with regorafenib 16 mg/kg p.o. × 3 d (concurrent)
[13] = rat plasma, 16 mg/kg p.o. × 1 d, no RT
[14] = rat plasma, 16 mg/kg p.o. × 3 d, no RT
[15] = rat plasma, RT2 Gy × 1 f'x followed by regorafenib 16 mg/kg p.o. × 1 d (sequential)
[16] = rat plasma, RT2 Gy × 1 f'x with regorafenib 16 mg/kg p.o. × 1 d (concurrent)
[17] = rat plasma, RT2 Gy × 3 f'x followed by regorafenib 16 mg/kg p.o. × 3 d (sequential)
[18] = rat plasma, RT2 Gy × 3 f'x with regorafenib 16 mg/kg p.o. × 3 d (concurrent)
[19] = rat plasma, RT9 Gy × 1 f'x followed by regorafenib 16 mg/kg p.o. × 1 d (sequential)
[20] = rat plasma, RT9 Gy × 1 f'x with regorafenib 16 mg/kg p.o. × 1 d (concurrent)
[21] = rat plasma, RT9 Gy × 3 f'x followed by regorafenib 16 mg/kg p.o. × 3 d (sequential)
[22] = rat plasma, RT9 Gy × 3 f'x with regorafenib 16 mg/kg p.o. × 3 d (concurrent)

CNC(=O)c1cc(Oc2ccc(NC(=O)Nc3ccc(Cl)c(C(F)(F)F)c3)c(F)c2)ccn1 [regorafenib, Regorafenib]
Decrease of plasma AUCregorafenib ([1]; concurrent RT2 Gy × 1 f'x vs sham RT (regorafenib × 1 d), rat): 33.0%
Decrease of plasma AUCregorafenib ([1]; concurrent RT2 Gy × 3 f'x vs regorafenib × 3 d, rat): 74%
Decrease of plasma AUCregorafenib ([1]; concurrent RT9 Gy × 3 f'x vs regorafenib × 3 d, rat): 69% and 69.4%
concentration at 180 min ([1]; male, Sprague-Dawley, oral, rat plasma collected 180 min after regorafenib 16 mg/kg p.o. alone): 1500 ng/mL
MRT [1, 3]: 24.7 h
Tmax [1, 3]: 3.17 h
half-life [1, 3]: 15.7 ± 8.92 h
MRT [1, 4]: 13.7 h
Tmax [1, 4]: 1.5 h
half-life [1, 4]: 9.17 ± 2.43 h
MRT [1, 5]: 9.22 h
Tmax [1, 5]: 3 h
half-life [1, 5]: 5.77 ± 1.55 h
MRT [1, 6]: 10.8 h
Tmax [1, 6]: 2.75 h
half-life [1, 6]: 6.82 ± 2.5 h
MRT [1, 7]: 22.8 h
Tmax [1, 7]: 1.67 h
half-life [1, 7]: 15.3 ± 15.9 h
MRT [1, 8]: 9.73 h
Tmax [1, 8]: 2.08 h
half-life [1, 8]: 6.2 ± 2.53 h
MRT [1, 9]: 15.6 h
Tmax [1, 9]: 2.58 h
half-life [1, 9]: 10.1 ± 3.5 h
MRT [1, 10]: 16.3 h
Tmax [1, 10]: 2.58 h
half-life [1, 10]: 10.9 ± 7.42 h
MRT [1, 11]: 14.3 h
Tmax [1, 11]: 1.83 h
half-life [1, 11]: 9.52 ± 5.38 h
MRT [1, 12]: 16.4 h
Tmax [1, 12]: 1.63 h
half-life [1, 12]: 11 ± 9.97 h
Decrease of regorafenib levels (AUC) by a single fraction of RT, concurrent regimen ([1]; off-target or SBRT dose, × 1 f'x, concurrent, rat): ~35%
AUCregorafenib, sequential RT2 Gy × 3 f'x relative to concurrent RT2 Gy × 3 f'x ([1]; rat plasma): 2.0 fold
Cl [1, 13]: 8.18 ± 3.06 mL/min/kg
Vss [1, 13]: 12641.9 ± 6928.9 mL/kg
Cl [1, 14]: 4.21 ± 1.82 mL/min/kg
Vss [1, 14]: 3604.5 ± 951.1 mL/kg
Cl [1, 15]: 6.19 ± 0.35 mL/min/kg
Vss [1, 15]: 3081.4 ± 773.1 mL/kg
Cl [1, 16]: 16.6 ± 7.21 mL/min/kg
Vss [1, 16]: 21606.9 ± 20731.8 mL/kg
Cl [1, 17]: 8.56 ± 7.21 mL/min/kg
Vss [1, 17]: 4156.0 ± 1959.9 mL/kg
Cl [1, 18]: 23.20 ± 9.45 ^n mL/min/kg
Vss [1, 18]: 12759.6 ± 8467.4 ^p mL/kg
Cl [1, 19]: 3.3 ± 4.3 mL/min/kg
Vss [1, 19]: 2898.8 ± 4123.7 mL/kg
Cl [1, 20]: 34.6 ± 25.3 mL/min/kg
Vss [1, 20]: 30999.0 ± 34618.0 mL/kg
Cl [1, 21]: 11.4 ± 4.5 mL/min/kg
Vss [1, 21]: 7960.3 ± 3023.5 ^r mL/kg
Cl [1, 22]: 19.0 ± 11.7 ^o mL/min/kg
Vss [1, 22]: 11564.4 ± 3361.0 ^q mL/kg
Increase of plasma AUCregorafenib ([1]; sequential RT2 Gy × 1 f'x vs regorafenib × 1 d, rat): 182.8%
Decrease of plasma AUCregorafenib ([1]; sequential RT2 Gy × 3 f'x vs regorafenib × 3 d, rat): 20.7%
Increase of plasma AUCregorafenib ([1]; sequential RT9 Gy × 1 f'x vs regorafenib × 1 d, rat): 213.2%
Decrease of plasma AUCregorafenib ([1]; sequential RT9 Gy × 3 f'x vs regorafenib × 3 d, rat): 45.8%
Morphological changes (in words) [2]: Cell shrinkage and pyknosis occurred in a dose-dependent manner

Reference: PMC8035703, “Effect of Synchronous Versus Sequential Regimens on the Pharmacokinetics and Biodistribution of Regorafenib with Irradiation” (Pharmaceutics, 2021)
